Laboratory results: patent publication US5484911A, “Nucleoside 5'-diphosphate conjugates of ether lipids” (Health Research, Inc., priority 1993, dated 1996)

Experiments:
HIV-1 = conditions: cited from earlier work
[1] = system: biosynthesis of phosphatidylinositol, phosphatidylglycerol or diphosphatidylglycerol; conditions: rat liver subcellular fractions; release of nucleoside 5'-monophosphates; cited from earlier work
in vivo = assay: in vivo; parameters: species or system Female NIH-Swiss mice; conditions: mouse, ip, 100 mg/kg
Experimental: FIG. 7. Mouse serum concentration of AZT following administration of AZT or AZTDP-DL-PTBA Female NIH-Swiss mice weighing 25-30 g were administered i.p. with AZT (100 mg/kg) or AZTDP-DL-PTBA (394 mg/kg, equivalent to 100 mg/kg AZT). Three mice were sacrificed at the designated time (up to 24 hr) and AZT in the serum was analyzed by a HPLC method.
Female NIH-Swiss mice weighing 25-30 g were administered intraperitoneally (i.p.) with 394 mg/kg of AZTDP-DL-PTBA (equivalent to 100 mg/kg AZT). Three mice were sacrificed at the designated time (up to 24 hours) and AZT in the serum was analyzed by an HPLC method. […] The intact conjugate level in the serum was unable to be checked by the HPLC method.

herpes simplex = conditions: cited from earlier work
respiratory syncytial = conditions: cited from earlier work
[2] = system: colon 26 carcinoma, M5076 sarcoma, Lewis lung carcinoma, and C-1300 neuroblastoma; conditions: mouse, in vivo; cited from earlier work
[3] = mouse, in vivo; cited from earlier work
L1210 and P388 leukemia = conditions: mouse, in vivo; cited from earlier work
[4] = system: M5076 sarcoma and Lewis lung carcinoma; conditions: mouse, in vivo; cited from earlier work
[5] = system: rat mammary carcinoma SMT-2A; conditions: alone and in combination with VP-16; cited from earlier work
[6] = system: human colorectal cancer xenografts and PSN-1 human pancreatic tumor; conditions: mouse, in vivo; cited from earlier work
L1210 leukemic cells = conditions: cited from earlier work
[7] = system: myelomonocytic WEHI-3B leukemia; conditions: mouse, in vivo; cited from earlier work

COCCCCCCCCCCCC(=O)O [13-Oxamyristic acid, 12-methoxydodecanoic acid]
effectiveness among myristate analogs (HIV-1): the most effective | reverse transcriptase activity, p24 levels, and syncytia formation (HIV-1): concentration-dependent decrease in reverse transcriptase activity, p24 levels, and syncytia formation

AZT diphosphate diglyceride [AZTDP-DG]
substitution for CDP-DG in phospholipid biosynthesis [1]: can substitute to varying extents for CDP-DG

Cc1cn([C@H]2C[C@H](N=[N+]=[N-])[C@@H](CO)O2)c(=O)[nH]c1=O [AZT, 3'-azido-3'-deoxythymidine, reference compound]
half-life (in vivo): 18.6 min

CCCCCCCCCCCCCCCCCCCCCCO [Example 1-Docosanol, 1-Docosanol]
herpes simplex viral replication (herpes simplex): inhibits herpes simplex and respiratory syncytial viral replication | respiratory syncytial viral replication (respiratory syncytial): inhibits herpes simplex and respiratory syncytial viral replication

CCCCCCCCCCCCCCCCCCSCC(COP(=O)(O)OP(=O)(O)OC[C@H]1O[C@@H](n2ccc(N)nc2=O)[C@@H](O)[C@@H]1O)OC(=O)CCCCCCCCCCCCCCC (mixture of isomers) [Cytoros]
therapeutic activity [2]: rather broad spectrum of therapeutic activity | plasma ara-C concentration and intracellular retention of ara-CTP compared to ara-C [3]: more prolonged plasma ara-C concentration and intracellular retention of ara-CTP | effectiveness among ara-C conjugates tested (L1210 and P388 leukemia): the most effective of those tested | antimetastatic activity [4]: displayed antimetastic activity | primary and lymph node metastasis [5]: markedly retarded both primary and lymph node metastasis | antitumor activity [6]: strong antitumor activity | cytotoxicity to L1210 leukemic cells compared to normal mouse bone marrow cells (L1210 leukemic cells): selective cytotoxicity to L1210 leukemic cells | efficacy compared with ara-CDP-L-dipalmitin [7]: considerably higher efficacy than ara-CDP-L-dipalmitin
